This note sets out measurements from ChEMBL document CHEMBL4421717, “Antagonists and agonists of bitter taste receptors and uses thereof” (2012).

Each structure is given as a SMILES string. Activity calls are given as the source filed them. The rule behind the calls is not given here.

What all share (format): functional, cell-based
Assay [1] deals with T1, Taste receptor type 2 member 4 (Homo sapiens) (UniProt Q9NYW5).
T1 sequence (whole entry): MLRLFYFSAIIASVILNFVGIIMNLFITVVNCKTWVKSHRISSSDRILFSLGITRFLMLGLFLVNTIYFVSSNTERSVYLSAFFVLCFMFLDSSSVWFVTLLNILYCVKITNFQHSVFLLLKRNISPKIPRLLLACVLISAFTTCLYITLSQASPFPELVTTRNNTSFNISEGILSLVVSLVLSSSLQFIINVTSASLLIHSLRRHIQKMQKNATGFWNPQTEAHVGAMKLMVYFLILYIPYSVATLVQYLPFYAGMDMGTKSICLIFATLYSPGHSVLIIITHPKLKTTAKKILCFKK
The assay can be described thus: Agonist activity at recombinant human N-terminal rat ST3 receptor-fused TAS2R4 expressed in HEK293T cells co-expressing Galpha16gust44 assessed as effect on intracellular calcium level at 100 uM by FLIPR assay. (In general: Calcium assays in cells follow changes in intracellular calcium, usually with a dye or a luminescent sensor.)

Assay [2] concerns the target Taste receptor type 2 member 7 (Homo sapiens) (UniProt Q9NYW3). Briefly: Agonist activity at recombinant human N-terminal rat ST3 receptor-fused TAS2R7 expressed in HEK293T cells co-expressing Galpha16gust44 assessed as effect on intracellular calcium level at 100 uM by FLIPR assay.
Assay [3] addresses Taste receptor type 2 member 45 (Homo sapiens) (UniProt P59539). The assay can be described thus: Agonist activity at recombinant human N-terminal rat ST3 receptor-fused TAS2R45 expressed in HEK293T cells co-expressing Galpha16gust44 assessed as effect on intracellular calcium level at 100 uM by FLIPR assay.
For assay [4], the target named is T2, Taste receptor type 2 member 43 (Homo sapiens) (UniProt P59537).
T2 sequence (whole entry): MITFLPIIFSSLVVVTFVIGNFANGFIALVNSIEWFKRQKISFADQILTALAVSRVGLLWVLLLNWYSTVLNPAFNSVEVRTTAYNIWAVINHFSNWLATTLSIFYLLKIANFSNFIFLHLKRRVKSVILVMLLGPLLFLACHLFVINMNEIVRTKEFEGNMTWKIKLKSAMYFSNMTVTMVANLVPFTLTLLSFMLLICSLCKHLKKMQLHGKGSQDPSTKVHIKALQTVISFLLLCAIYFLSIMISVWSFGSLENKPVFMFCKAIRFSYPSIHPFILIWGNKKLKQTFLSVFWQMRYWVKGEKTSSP
Briefly: Agonist activity at recombinant human N-terminal rat ST3 receptor-fused TAS2R43 expressed in HEK293T cells co-expressing Galpha16gust44 assessed as effect on intracellular calcium level at 100 uM by FLIPR assay.

Assay [5] has as its target T3, Taste receptor type 2 member 46 (Homo sapiens) (UniProt P59540).
T3 sequence (whole entry): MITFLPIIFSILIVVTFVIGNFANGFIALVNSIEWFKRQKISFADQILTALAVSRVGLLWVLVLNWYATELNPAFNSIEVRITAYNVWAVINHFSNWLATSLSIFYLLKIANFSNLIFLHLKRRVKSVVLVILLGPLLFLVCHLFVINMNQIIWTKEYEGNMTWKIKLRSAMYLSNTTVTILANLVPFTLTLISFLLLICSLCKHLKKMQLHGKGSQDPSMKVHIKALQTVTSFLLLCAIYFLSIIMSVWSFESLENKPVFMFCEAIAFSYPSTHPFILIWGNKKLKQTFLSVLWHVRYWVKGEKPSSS
Briefly: Competitive antagonist activity at recombinant human N-terminal rat ST3 receptor-fused TAS2R46 expressed in HEK293T cells co-expressing Galpha16gust44 assessed as inhibition strychnine-induced intracellular calcium level by measuring strychnine induced maximum signal amplitude at 30 uM by FLIPR assay (reference value: 0.42 +/- 0.09 au)).

In assay [6] the target is T4, Taste receptor type 2 member 50 (Homo sapiens) (UniProt P59544).
T4 sequence (whole entry): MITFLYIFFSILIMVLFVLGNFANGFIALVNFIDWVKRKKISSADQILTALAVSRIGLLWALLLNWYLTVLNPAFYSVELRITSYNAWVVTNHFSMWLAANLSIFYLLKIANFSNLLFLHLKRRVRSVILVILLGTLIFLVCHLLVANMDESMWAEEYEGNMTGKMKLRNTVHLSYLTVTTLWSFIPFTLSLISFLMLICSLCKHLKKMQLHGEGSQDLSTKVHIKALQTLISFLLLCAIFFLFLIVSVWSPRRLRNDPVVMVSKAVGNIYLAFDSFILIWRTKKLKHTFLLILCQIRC
The assay can be described thus: Agonist activity at recombinant human N-terminal rat ST3 receptor-fused TAS2R50 expressed in HEK293T cells co-expressing Galpha16gust44 assessed as effect on intracellular calcium level at 100 uM by FLIPR assay.

In assay [7] the target is Taste receptor type 2 member 31 (Homo sapiens) (UniProt P59538). Briefly: Agonist activity at recombinant human N-terminal rat ST3 receptor-fused TAS2R44 expressed in HEK293T cells co-expressing Galpha16gust44 assessed as effect on intracellular calcium level at 100 uM by FLIPR assay.
Assay [8] concerns the target T5, Taste receptor type 2 member 20 (Homo sapiens) (UniProt P59543).
T5 sequence (whole entry): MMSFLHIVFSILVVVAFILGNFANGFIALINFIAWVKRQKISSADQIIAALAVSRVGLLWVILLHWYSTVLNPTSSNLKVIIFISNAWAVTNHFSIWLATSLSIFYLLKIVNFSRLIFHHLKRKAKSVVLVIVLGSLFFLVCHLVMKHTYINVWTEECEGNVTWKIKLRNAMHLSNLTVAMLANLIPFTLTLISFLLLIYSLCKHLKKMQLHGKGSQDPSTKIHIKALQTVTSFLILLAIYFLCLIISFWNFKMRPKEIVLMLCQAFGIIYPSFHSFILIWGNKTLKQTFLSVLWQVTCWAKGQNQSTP
Briefly: Agonist activity at recombinant human N-terminal rat ST3 receptor-fused TAS2R49 expressed in HEK293T cells co-expressing Galpha16gust44 assessed as effect on intracellular calcium level at 100 uM by FLIPR assay.

Assay [9] concerns the target T3, Taste receptor type 2 member 46 (Homo sapiens). Briefly: Competitive antagonist activity at recombinant human N-terminal rat ST3 receptor-fused TAS2R46 expressed in HEK293T cells co-expressing Galpha16gust44 assessed as inhibition strychnine-induced intracellular calcium level by measuring strychnine induced maximum signal amplitude at 100 uM by FLIPR assay (reference value: 0.42 +/- 0.09 au)).

Assay [10] concerns the target Taste receptor type 2 member 31 (Homo sapiens) (UniProt P59538). Briefly: Antagonist activity at recombinant human N-terminal rat ST3 receptor-fused TAS2R44 expressed in HEK293T cells co-expressing Galpha16gust44 assessed as inhibition of aristolochic acids-induced intracellular calcium level at 100 uM by FLIPR assay.

Chain of Taste receptor type 2 member 31 (Homo sapiens) (P59538 whole entry, the tested form may be a part): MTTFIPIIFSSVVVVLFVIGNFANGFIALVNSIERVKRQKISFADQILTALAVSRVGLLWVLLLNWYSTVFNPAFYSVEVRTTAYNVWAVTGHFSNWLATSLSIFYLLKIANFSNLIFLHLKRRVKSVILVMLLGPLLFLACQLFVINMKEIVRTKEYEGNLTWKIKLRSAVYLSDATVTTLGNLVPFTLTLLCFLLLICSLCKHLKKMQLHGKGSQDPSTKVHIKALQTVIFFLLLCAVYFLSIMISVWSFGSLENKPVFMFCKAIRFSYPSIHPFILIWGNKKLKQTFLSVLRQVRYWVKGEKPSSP
Chain of Taste receptor type 2 member 7 (Homo sapiens) (Q9NYW3 whole entry, the tested form may be a part): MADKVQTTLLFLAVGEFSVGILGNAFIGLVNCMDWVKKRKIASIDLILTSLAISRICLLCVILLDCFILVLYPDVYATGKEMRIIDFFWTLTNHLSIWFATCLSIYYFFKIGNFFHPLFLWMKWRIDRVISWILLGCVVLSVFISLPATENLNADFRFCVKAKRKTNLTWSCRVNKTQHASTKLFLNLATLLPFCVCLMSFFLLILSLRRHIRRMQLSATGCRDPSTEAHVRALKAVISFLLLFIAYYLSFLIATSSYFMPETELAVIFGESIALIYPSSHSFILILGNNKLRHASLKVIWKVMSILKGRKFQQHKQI
Chain of Taste receptor type 2 member 45 (Homo sapiens) (P59539 whole entry, the tested form may be a part): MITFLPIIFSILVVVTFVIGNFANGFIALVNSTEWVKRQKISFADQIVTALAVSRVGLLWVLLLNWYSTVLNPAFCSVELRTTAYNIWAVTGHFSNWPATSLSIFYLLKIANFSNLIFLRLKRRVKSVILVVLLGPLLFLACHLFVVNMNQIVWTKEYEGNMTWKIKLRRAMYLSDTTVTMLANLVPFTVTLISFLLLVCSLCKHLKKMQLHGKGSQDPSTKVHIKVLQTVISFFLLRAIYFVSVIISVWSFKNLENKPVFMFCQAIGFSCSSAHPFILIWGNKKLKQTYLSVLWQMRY

On to `C/C1=C\C[C@H](O)/C(C)=C/[C@H]2OC(=O)[C@@H](C)C2CC1` (stereo not given in full), for which the result in [1], in assay [2] and in [7] was Active. In addition, the outcome in assay [3], in assay [4], in assay [6] and in assay [8] was inactive. Further, the Activity worked out at 0.41 a.u in assay [5] and 0.34 a.u in [9].

Turning to `C/C1=C\C[C@H](O)[C@@H](C)C[C@H]2OC(=O)[C@@H](C)C2CC1` (stereo not given in full), the inhibition result in assay [10] was “Active”.
